Test results: patent publication US20090143279A1 (priority 2007, published 2009)
Where two headings read alike, the source gives them in different places.

Experiments:
[1] = test system: cytochrome c; format: cell-based, mouse; conditions: Conc 20 μM; for cyt c (composite Z-score): normalized score vs mock-treated (DMSO) wells
[2] = test system: OXPHOS gene expression; format: cell-based, mouse; conditions: Conc 20 μM; for GE-HTS (composite Z-score): normalized score vs mock-treated (DMSO) wells
[3] = test system: reactive oxygen species; format: cell-based, mouse; conditions: Conc 20 μM; for ROS (composite Z-score): normalized score vs mock-treated (DMSO) wells
[4] = test system: C2C12 myotubes; conditions: Conc 20 μM; for Viability (composite Z-score): normalized score vs mock-treated (DMSO) wells
[5] = test system: mtOXPHOS transcripts; format: cell-based, mouse; conditions: Conc 20 μM; for mitoOX (composite Z-score): normalized score vs mock-treated (DMSO) wells
[6] = test system: mitochondrial membrane potential; format: cell-based, mouse; conditions: Conc 20 μM; for ΔΨm (composite Z-score): normalized score vs mock-treated (DMSO) wells
[7] = test system: cellular dehydrogenase activity; conditions: Conc 20 μM; for MTT (composite Z-score): normalized score vs mock-treated (DMSO) wells
[8] = test system: nuOXPHOS transcripts; format: cell-based, mouse; conditions: Conc 20 μM; for nucOX (composite Z-score): normalized score vs mock-treated (DMSO) wells
[9] = composite Z-score vs mock-treated (DMSO) wells
[10] = normalized composite Z-score vs mock-treated (DMSO) wells

| SMILES | cyt c [1, 9] | GE-HTS [2, 9] | ROS [3, 9] | Viability [4, 9] | mitoOX [5, 9] | ΔΨm [6, 9] | MTT [7, 9] | nucOX [8, 9] | cyt c [1, 10] | GE-HTS [2, 10] | ROS [3, 10] | Viability [4, 10] | mitoOX [5, 10] | ΔΨm [6, 10] | MTT [7, 10] | nucOX [8, 10] | cyt c (composite Z-score) [1] | GE-HTS (composite Z-score) [2] | ROS (composite Z-score) [3] | Viability (composite Z-score) [4] | other results |
| --- | --- | --- | --- | --- | --- | --- | --- | --- | --- | --- | --- | --- | --- | --- | --- | --- | --- | --- | --- | --- | --- |
| C[C@]12CCC(=O)C=C1CCc1ccc(O)cc12 | −0.516 | 0.075 | 0.676 | −0.592 | 0.846 | −0.484 | −0.984 | −0.281 |  |  |  |  |  |  |  |  |  |  |  |  |  |
| COc1ccc2c(c1)C1(C)CCC(O)CC1CC2 (centres unmarked) |  |  |  |  |  |  |  |  |  |  |  |  |  |  |  |  |  |  |  |  | cyt c ([1]; composite Z-score vs DMSO): −0.087; GE-HTS ([2]; composite Z-score vs DMSO): −0.375; ROS ([3]; composite Z-score vs DMSO): 0.559; Viability ([4]; composite Z-score vs DMSO): −1.078; mitoOX ([5]; composite Z-score vs DMSO): −0.270; ΔΨm ([6]; composite Z-score vs DMSO): −0.840; MTT ([7]; composite Z-score vs DMSO): −2.017; nucOX ([8]; composite Z-score vs DMSO): −0.350 |
| COc1cc2c(cc1OC)C1(O)C(=O)c3ccc(O)c(C(=O)O)c3OC1CO2 (centres unmarked) |  |  |  |  |  |  |  |  | 0.670 | −0.404 | −0.738 | 0.509 | −0.773 | −0.494 | −0.976 | −0.162 |  |  |  |  |  |
| Cc1ccc2c(c1)CC[C@H]1CC(=O)CC[C@]21C | 0.009 | 0.903 | 0.072 | −0.093 | 0.748 | −0.470 | −2.132 | 0.870 |  |  |  |  |  |  |  |  |  |  |  |  |  |
| COc1cccc2c1CCC1=CC(=O)CCC12C (centres unmarked) | −0.293 | −0.465 | 0.673 | −0.577 | −0.626 | −0.506 | −1.530 | −0.372 |  |  |  |  |  |  |  |  |  |  |  |  |  |
| COc1cccc2c1CCC1CC(=O)CCC21C (centres unmarked) |  |  |  |  |  |  |  |  | 1.307 | −0.872 | −0.109 | −0.060 | −0.612 | 1.124 | −1.068 | −0.900 |  |  |  |  |  |
| CCOC(=O)c1oc2c(OC)c(O)cc(O)c2c(=O)c1-c1cc(OC)c(OC)c(OC)c1 | −0.783 | −1.306 | 0.244 | −1.124 | −1.218 | −0.397 | −0.761 | −1.229 |  |  |  |  |  |  |  |  |  |  |  |  |  |
| COC1CC(C)C2OC2CC(C)C2CC(C)(C)C12 (centres unmarked) |  |  |  |  |  |  |  |  | 0.933 | −0.497 | 0.120 | −1.011 | −0.439 | −0.699 | −0.794 | −0.466 |  |  |  |  |  |
| C=C1CCC(C2CC(=O)OC2=O)C(=O)CCC2C1CC2(C)C (centres unmarked) |  |  |  |  |  |  |  |  | 0.345 | −1.109 | 0.012 | −0.749 | −1.046 | −0.249 | −0.968 | −1.009 |  |  |  |  |  |
| CCOc1ccc(C(=O)C2=C(O)C(OC)C(O)(OC)C=C2)cc1 (centres unmarked) |  |  |  |  |  |  |  |  |  |  |  |  |  |  |  |  | 0.559 | −1.530 | −0.264 | −0.048 | mitoOX (composite Z-score) [5]: −1.568; ΔΨm (composite Z-score) [6]: 0.089; MTT (composite Z-score) [7]: −1.130; nucOX (composite Z-score) [8]: −1.393 |
| CCOc1cc(CC(=O)c2ccc(O)c(O)c2O)ccc1O |  |  |  |  |  |  |  |  |  |  |  |  |  |  |  |  | 0.255 | 1.215 | 0.189 | −1.198 | mitoOX (composite Z-score) [5]: 0.371; ΔΨm (composite Z-score) [6]: −1.362; MTT (composite Z-score) [7]: −1.279; nucOX (composite Z-score) [8]: 1.496 |
| CC12CCC(O)CC1CCc1ccccc12 (centres unmarked) |  |  |  |  |  |  |  |  |  |  |  |  |  |  |  |  | 0.790 | −0.250 | 0.477 | 0.056 | mitoOX (composite Z-score) [5]: −0.717; ΔΨm (composite Z-score) [6]: −0.339; MTT (composite Z-score) [7]: −0.574; nucOX (composite Z-score) [8]: −0.023 |
| CC(=O)O[C@H]1CC[C@]2(C)C3=CC(=O)[C@]4(C)[C@@H]5[C@H](C[C@H]4[C@@H]3CC[C@H]2C1)O[C@@]1(OCC(C)CC1Br)[C@H]5C (some centres unmarked) |  |  |  |  |  |  |  |  |  |  |  |  |  |  |  |  | 0.565 | −0.560 | 1.188 | 0.710 | mitoOX (composite Z-score) [5]: −0.446; ΔΨm (composite Z-score) [6]: −0.260; MTT (composite Z-score) [7]: −2.231; nucOX (composite Z-score) [8]: −0.585 |
